Laboratory results as given in patent publication US11866430B2, “Naphthyridinone compounds useful as T cell activators” (priority 2018, dated 2024).

How the values were obtained:
[1] = target: T1, human DGKζ (Homo sapiens (Human), UniProt Q13574); assay: DGKζ assay (detergent/lipid micelle substrate); type: biochemical; settings: detergent/lipid micelle substrate; read-out: DGKζ IC50
Summary of the method: (§1)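 Full-length human DGKζ (and DGKα), C-terminal His-tagged, Sf9-expressed, with phosphatidylserine/DAG micelles in 50 mM octyl glucoside; buffer 50 mM MOPS pH 7.5, 100 mM NaCl, 10 mM MgCl2, 1 μM CaCl2, 1 mM DTT.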

[2] = target: T1, human DGKζ; assay: DGKζ LIPGLO assay (extruded liposome substrate); type: biochemical; settings: extruded liposome substrate; read-out: DGKζ LIPGLO IC50
Summary of the method: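 Sf9-derived DGKζ was premixed 10 min with PC/DAG/PS liposomes (100 nm extruded) in MOPS pH 7.5 buffer containing NaCl, MgCl2, CaCl2 and DTT.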

[3] = target: T2, human DGKα (Homo sapiens (Human), UniProt P23743); assay: DGKα LIPGLO assay (extruded liposome substrate); type: biochemical
T2 sequence (P23743 other isoform, or with tags, fused parts or gaps): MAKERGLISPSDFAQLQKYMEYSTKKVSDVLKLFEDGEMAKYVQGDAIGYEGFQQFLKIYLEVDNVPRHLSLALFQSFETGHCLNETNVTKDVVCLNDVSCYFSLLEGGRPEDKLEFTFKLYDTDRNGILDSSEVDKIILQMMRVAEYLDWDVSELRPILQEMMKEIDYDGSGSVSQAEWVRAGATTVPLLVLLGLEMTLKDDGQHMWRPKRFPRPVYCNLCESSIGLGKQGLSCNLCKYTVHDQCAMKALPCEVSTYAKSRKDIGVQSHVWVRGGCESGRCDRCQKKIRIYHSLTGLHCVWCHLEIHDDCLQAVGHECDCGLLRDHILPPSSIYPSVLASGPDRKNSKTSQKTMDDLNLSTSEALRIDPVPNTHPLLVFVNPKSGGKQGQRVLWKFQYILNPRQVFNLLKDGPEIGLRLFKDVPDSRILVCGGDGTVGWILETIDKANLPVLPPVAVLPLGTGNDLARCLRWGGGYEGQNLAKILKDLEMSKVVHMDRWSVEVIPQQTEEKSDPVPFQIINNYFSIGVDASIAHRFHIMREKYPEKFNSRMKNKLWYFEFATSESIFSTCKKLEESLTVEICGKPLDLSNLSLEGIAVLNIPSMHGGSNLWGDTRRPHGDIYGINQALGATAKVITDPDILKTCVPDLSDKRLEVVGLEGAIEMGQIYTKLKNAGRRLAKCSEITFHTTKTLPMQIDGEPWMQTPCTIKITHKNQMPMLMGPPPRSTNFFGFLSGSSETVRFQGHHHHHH
Summary of the method: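 Human full-length DGKα, His-tagged and produced in Sf9 cells, assayed at 20 nM (4× stock) on extruded liposomes of PS, 0.25 mM DAG and 2.75 mM PC, preincubated 10 min. Reaction started with 300 μM ATP (stock) and ran 1 h in MOPS pH 7.5/MgCl2/CaCl2/DTT buffer.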

[4] = tested on: pre-activated CD4 T cells and Raji cells; assay: Raji CD4 T Cell IL2 Assay; type: cell-based; settings: Homo sapiens, Raji
[5] = target: T2, human DGKα; assay: biochemical; settings: detergent/lipid micelle substrate; read-out: DGKα IC50
Summary of the method: as §1

T1 sequence (Q13574 other isoform, or with tags, fused parts or gaps): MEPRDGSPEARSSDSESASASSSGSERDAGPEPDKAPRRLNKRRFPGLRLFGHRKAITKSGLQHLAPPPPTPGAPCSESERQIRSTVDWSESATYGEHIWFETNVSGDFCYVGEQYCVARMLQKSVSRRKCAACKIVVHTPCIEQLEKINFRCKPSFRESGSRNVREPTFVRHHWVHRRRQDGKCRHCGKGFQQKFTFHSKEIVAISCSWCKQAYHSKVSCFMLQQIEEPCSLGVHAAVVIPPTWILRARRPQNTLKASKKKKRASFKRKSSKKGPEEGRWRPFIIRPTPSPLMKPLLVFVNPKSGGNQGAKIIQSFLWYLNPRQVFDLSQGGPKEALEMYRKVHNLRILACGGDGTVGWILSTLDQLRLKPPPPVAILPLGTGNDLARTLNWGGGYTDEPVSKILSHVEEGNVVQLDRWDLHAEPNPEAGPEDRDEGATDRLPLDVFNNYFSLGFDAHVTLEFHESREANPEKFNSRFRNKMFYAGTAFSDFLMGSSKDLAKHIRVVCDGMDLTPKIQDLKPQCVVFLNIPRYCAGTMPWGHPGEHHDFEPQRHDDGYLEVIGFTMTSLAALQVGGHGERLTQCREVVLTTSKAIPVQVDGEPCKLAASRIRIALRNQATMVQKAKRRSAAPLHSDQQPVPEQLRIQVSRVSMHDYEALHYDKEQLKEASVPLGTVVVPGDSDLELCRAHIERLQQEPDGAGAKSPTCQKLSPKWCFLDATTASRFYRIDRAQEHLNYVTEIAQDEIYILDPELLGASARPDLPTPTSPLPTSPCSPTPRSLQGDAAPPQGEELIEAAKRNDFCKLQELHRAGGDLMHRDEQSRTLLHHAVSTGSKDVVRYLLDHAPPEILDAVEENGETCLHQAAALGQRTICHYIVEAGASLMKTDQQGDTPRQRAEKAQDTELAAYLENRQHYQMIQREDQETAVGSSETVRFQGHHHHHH

Row | Structure (SMILES) | IC50 [1] [nM] | IC50 [2] [nM] | IC50 [3] [nM] | IC50 [4] [nM] | IC50 [5] [nM]
1 | Cn1c(=O)c(C#N)c(N2CCN(Cc3cc(Br)ccc3O)CC2)c2nc(Cl)ccc21 [Example 275, 4-{4-[(5-bromo-2-hydroxyphenyl)methyl]piperazin-1-yl}-6-chloro-1-methyl-2-oxo-1,2-dihydro-1,5-naphthyridine-3-carbonitrile] | 58000 | 10000 | 770 | 73 | 300
2 | Cc1ccc2c(n1)c(N1CCN(Cc3cc(Br)ccc3O)CC1)c(C#N)c(=O)n2C [Example 277, 4-{4-[(5-bromo-2-hydroxyphenyl)methyl]piperazin-1-yl}-1,6-dimethyl-2-oxo-1,2-dihydro-1,5-naphthyridine-3-carbonitrile] | 45000 | 13000 | 1700 | 79 | 750
3 | COc1ccc(CN2CCN(c3c(C#N)c(=O)n(C)c4ccc(Cl)nc34)CC2)cc1F [Example 279, 6-chloro-4-{4-[(3-fluoro-4-methoxyphenyl)methyl]piperazin-1-yl}-1-methyl-2-oxo-1,2-dihydro-1,5-naphthyridine-3-carbonitrile] | 56000 | 5800 | 810 | 92 | 380
4 | Cc1cccc(CN2CCN(c3c(C#N)c(=O)n(C)c4ccc(Cl)nc34)CC2)c1F [Example 281, 6-chloro-4-{4-[(2-fluoro-3-methylphenyl)methyl]piperazin-1-yl}-1-methyl-2-oxo-1,2-dihydro-1,5-naphthyridine-3-carbonitrile] | 49000 | 9900 | 2000 | 93 | 390
5 | Cc1ccc(O)c(CN2CCN(c3c(C#N)c(=O)n(C)c4ccc(Cl)nc34)CC2)c1 [Example 283, 6-chloro-4-{4-[(2-hydroxy-5-methylphenyl)methyl]piperazin-1-yl}-1-methyl-2-oxo-1,2-dihydro-1,5-naphthyridine-3-carbonitrile] | 27000 | 3000 | 210 | 94 | 120
6 | Cn1c(=O)c(C#N)c(N2CCN(Cc3ccc(F)cc3Cl)CC2)c2nc(Cl)ccc21 [Example 287, 6-chloro-4-{4-[(2-chloro-4-fluorophenyl)methyl]piperazin-1-yl}-1-methyl-2-oxo-1,2-dihydro-1,5-naphthyridine-3-carbonitrile] | > 240000 | 29000 | 18000 | 100 | 2100
7 | Cn1c(=O)c(C#N)c(N2CCN(Cc3ccc(Cl)cc3O)CC2)c2nc(Cl)ccc21 [Example 288, 6-chloro-4-{4-[(4-chloro-2-hydroxyphenyl)methyl]piperazin-1-yl}-methyl-2-oxo-1,2-dihydro-1,5-naphthyridine-3-carbonitrile] | > 240000 | 2300 | 33 | 100 | 37
8 | Cc1cccc(O)c1CN1CCN(c2c(C#N)c(=O)n(C)c3ccc(Cl)nc23)CC1 [Example 292, 6-chloro-4-{4-[(2-hydroxy-6-methylphenyl)methyl]piperazin-1-yl}-1-methyl-2-oxo-1,2-dihydro-1,5-naphthyridine-3-carbonitrile] | 25000 | 2400 | 480 | 110 | 270
9 | Cn1c(=O)c(C#N)c(N2CCN(Cc3cccc(Cl)c3O)CC2)c2nc(Cl)ccc21 [Example 293, 6-chloro-4-{4-[(3-chloro-2-hydroxyphenyl)methyl]piperazin-1-yl}-1-methyl-2-oxo-1,2-dihydro-1,5-naphthyridine-3-carbonitrile] | 58000 | 6000 | 600 | 110 | 270
10 | COc1ccc(CN2CCN(c3c(C#N)c(=O)n(C)c4ccc(Br)nc34)CC2)c(O)c1 [Example 295, 6-bromo-4-{4-[(2-hydroxy-4-methoxyphenyl)methyl]piperazin-1-yl}-1-methy-2-oxo-1,2-dihydro-1,5-naphthyridine-3-carbonitrile] | 55000 | 6900 | 160 | 140 | 130
11 | Cn1c(=O)c(C#N)c(N2CCN(Cc3ccccc3Cl)CC2)c2nc(Br)ccc21 [Example 300, 6-bromo-4-{4-[(2-chlorophenyl)methyl]piperazin-1-yl}-1-methyl-2-oxo-1,2-dihydro-1,5-naphthyridine-3-carbonitrile] | > 240000 | 98000 | 24000 | 160 | 2000
12 | Cn1c(=O)c(C#N)c(N2CCN(Cc3cccc(F)c3O)CC2)c2nc(Br)ccc21 [Example 304, 6-bromo-4-{4-[(3-fluoro-2-hydroxyphenyl)methyl]piperazin-1-yl}-1-methyl-2-oxo-1,2-dihydro-1,5-naphthyridine-3-carbonitrile] | 68000 | 5800 | 610 | 190 | 330
13 | COc1ccc(O)c(CN2CCN(c3c(C#N)c(=O)n(C)c4ccc(Cl)nc34)CC2)c1 [Example 305, 6-chloro-4-{4-[(2-hydroxy-5-methoxyphenyl)methyl]piperazin-1-yl}-1-methyl-2-oxo-1,2-dihydro-1,5-naphthyridine-3-carbonitrile] | 62000 | 7500 | 490 | 210 | 130
14 | Cn1c(=O)c(C#N)c(N2CCN(Cc3cc(F)ccc3O)CC2)c2nc(Cl)ccc21 [Example 312, 6-chloro-4-{4-[(5-fluoro-2-hydroxyphenyl)methyl]piperazin-1-yl}-1-methyl-2-oxo-1,2-dihydro-1,5-naphthyridine-3-carbonitrile] | > 240000 | 16000 | 220 | 240 | 120
15 | Cn1c(=O)c(C#N)c(N2CCN(Cc3cc(F)cc(C(F)(F)F)c3)CC2)c2nc(Cl)ccc21 [Example 313, 6-chloro-4-(4-{[3-fluoro-5-(trifluoromethyl)phenyl]methyl}piperazin-1-yl)-1-methyl-2-oxo-1,2-dihydro-1,5-naphthyridine-3-carbonitrile] | > 81000 | 62000 | 17000 | 250 | 1500
16 | Cn1c(=O)c(C#N)c(N2CCN(Cc3cccc(F)c3)CC2)c2nc(Cl)ccc21 [Example 321, 6-chloro-4-{4-[(3-fluorophenyl)methyl]piperazin-1-yl}-1-methyl-2-oxo-1,2-dihydro-1,5-naphthyridine-3-carbonitrile] | > 240000 | 12000 | 340 | 310 | 160
17 | Cn1c(=O)c(C#N)c(N2CCN(Cc3ccc(Cl)c(O)c3)CC2)c2nc(Cl)ccc21 [Example 323, 6-chloro-4-{4-[(4-chloro-3-hydroxyphenyl)methyl]piperazin-1-yl}-1-methyl-2-oxo-1,2-dihydro-1,5-naphthyridine-3-carbonitrile] | 11000 | 27000 | 1200 | 340 | 140
18 | Cc1ccc2c(n1)c(N1CCN(Cc3cccc(F)c3O)CC1)c(C#N)c(=O)n2C [Example 329, 4-{4-[(3-fluoro-2-hydroxyphenyl)methyl]piperazin-1-yl}-1,6-dimethyl-2-oxo-1,2-dihydro-1,5-naphthyridine-3-carbonitrile] | 30000 | 49000 | 5600 | 470 | 560
19 | Cn1c(=O)c(C#N)c(N2CCN(Cc3ccc(Cl)c(O)c3)CC2)c2nc(C#N)ccc21 [Example 332, 8-{4-[(4-chloro-3-hydroxyphenyl)methyl]piperazin-1-yl}-5-methyl-6-oxo-5,6-dihydro-1,5-naphthyridine-2,7-dicarbonitrile] | 67000 | 6500 | 2500 | 530 | 1100
20 | COc1cccc(F)c1CN1CCN(c2c(C#N)c(=O)n(C)c3ccc(Cl)nc23)CC1 [Example 335, 6-chloro-4-{4-[(2-fluor-6-methoxyphenyl)methyl]piperazin-1-yl}-1-methyl-2-oxo-1,2-dihydro-1,5-naphthyridine-3-carbonitrile] | > 240000 | 18000 | 1900 | 540 | 2700
21 | Cn1c(=O)c(C#N)c(N2CCN(Cc3cc(O)cc(F)c3)CC2)c2nc(Cl)ccc21 [Example 338, 6-chloro-4-{4-[(3-fluoro-5-hydroxyphenyl)methyl]piperazin-1-yl}-1-methyl-2-oxo-1,2-dihydro-1,5-naphthyridine-3-carbonitrile] | > 240000 | 66000 | 5100 | 580 | 1100
22 | Cn1c(=O)c(C#N)c(N2CCN(Cc3cc(C#N)ccc3F)CC2)c2nc(Cl)ccc21 [Example 340, 6-chloro-4-{4-[(5-cyano-2-fluoro-phenyl)methyl]piperazin-1-yl}-1-methyl-2-oxo-1,2-dihydro-1,5-naphthyridine-3-carbonitrile] | > 240000 | 17000 | 3400 | 690 | 4200
